# Measured values taken from article PMC5011342, “A high throughput drug screening assay to identify compounds that promote oligodendrocyte differentiation using acutely dissociated and purified oligodendrocyte precursor cells” (BMC Research Notes, 2016).
# Several values for one entry are separate records, joined by “and”; a condition that tells them apart may be missing. Equal values may be shown once. Where a name gives a salt, the structure may show the parent alone. Read-outs that look alike come from different tables or passages of the source. Starred links: 1 amine or outer side, 2 acyl side, 3 side chain; linkers in the order of their positions; H or OH if unused. Positions of bridges follow the written chain, without caps; N, C: chain ends. Non-standard residues stand in square brackets, D forms with d. Residues, ends and D or L forms follow the SMILES beside them. Chains are numbered I, II in the order given. Actinocin(9to1) = Cc1c2oc3c(C)ccc(C(=O)[*:1])c3nc-2c(C(=O)[*:2])c(N)c1=O; NMeV = CN[C@H](C(=O)O)C(C)C; Sar = CNCC(=O)O
# Tested on: expanded OPCs
# Test: cells
# Settings: for viability at 0.1 µM / viability at 1 µM / viability at 10 µM: Rattus norvegicus, 72 h
# Description: Having established a consistent assay for measuring OL differentiation in vitro, the next step was to utilize this assay to assess the ability of a wide array of compounds to promote OL differentiation. Prior to library screening, we first established the maximum non-toxic dose of each compound in the library. […] Therefore, we added each compound in the NIH clinical collection (NCC) library to OPCs at 10, 1, and 0.1 µM concentrations. Three days later, we assessed viability of the treated cells by measuring AlamarBlue fluorescence, a measure of cell viability (see “Methods” section). […] Appropriately, we established three sets of screening concentrations for library compounds: non-toxic compounds were tested at 10 and 2 µM, slightly toxic compounds (only toxic at 10 µM) were tested at 2 and 0.4 µM, and very toxic compounds were tested at 0.4 and 0.08 µM.
# OPCs were expanded in vitro by seeding into PDL-coated tissue culture flasks at 1000–2000 cells/cm^2 in differentiation media supplemented with 10 ng/ml PDGF-AA. Proliferating OPCs were fed every 2–3 days and supplemented with 2–3× concentration of PDGF as needed to prevent OPC differentiation. After 6–7 days of proliferation, OPCs were harvested by trypsinization, plated into PDL-coated 96-well Falcon plates and centrifuged at 200×g to facilitate cell attachment, survival, and even distribution of cells. Expanded OPCs were seeded in differentiation media at 10,000 cells/well and incubated for 2 h at 37 °C, 10 % CO2 prior to addition of compounds. The NCC library was diluted and added to cells at 10, 1, and 0.1 µM; each concentration was tested in quadruplicate. As a positive control for the induction of toxicity, 5 ng/ml tunicamycin was added to 8 wells in each plate. Three days later, a 1:10 dilution of alamarBlue® (AB) was added to each well and cells were incubated 4 h at 37 °C, 10 % CO2. AB fluorescence was measured using a PerkinElmer Victor II fluorescence microplate reader (PerkinElmer, Waltham, MA) with 560 nm excitation/590 nm emission filters. For library screening, the highest concentration of each compound was adjusted to a minimally toxic concentration based on this toxicity data. Compounds were additionally tested at a second concentration that was 1/5th of the top concentration. The final concentration of DMSO in each well was 0.1 %.
# [1] = alamarBlue viability of expanded OPCs, compound at 0.1 µM, relative to DMSO control
# [2] = alamarBlue viability of expanded OPCs, compound at 1 µM, relative to DMSO control
# [3] = alamarBlue viability of expanded OPCs, compound at 10 µM, relative to DMSO control
# [4] = read-out: 0.1 µM (% DMSO), alamarBlue viability of expanded OPCs, compound at 0.1 µM, sheet All Tox data
# [5] = read-out: 1 µM (% DMSO), alamarBlue viability of expanded OPCs, compound at 1 µM, sheet All Tox data
# [6] = read-out: 10 µM (% DMSO), alamarBlue viability of expanded OPCs, compound at 10 µM, sheet All Tox data
# [7] = read-out: 0.1 µM (% DMSO), alamarBlue viability, NCC library compound at 0.1 µM, sheet "All Tox data"
# [8] = read-out: 1 µM (% DMSO), alamarBlue viability, NCC library compound at 1 µM, sheet "All Tox data"
# [9] = read-out: 10 µM (% DMSO), alamarBlue viability, NCC library compound at 10 µM, sheet "All Tox data"
# [10] = alamarBlue viability, NCC library compound at 0.1 µM, sheet "All Tox data"
# [11] = alamarBlue viability, NCC library compound at 1 µM, sheet "All Tox data"
# [12] = alamarBlue viability, NCC library compound at 10 µM, sheet "All Tox data"
compound,measurement,setting,value
C[C@]12CC[C@H]3[C@@H](CCC4=CC(=O)CC[C@@]43C)[C@@H]1CC[C@@H]2O [Testosterone],viability at 0.1 µM,read-out: 0.1 µM (% DMSO),88.4%
same,viability at 1 µM,read-out: 1 µM (% DMSO),87.4%
same,viability at 10 µM,read-out: 10 µM (% DMSO),86.2%
same,0.1 µM (% DMSO),rat,87.3 % DMSO
same,1 µM (% DMSO),rat,87.6 % DMSO
same,10 µM (% DMSO),rat,84.8 % DMSO
C[C@]12CCC(=O)C=C1CC[C@@H]1[C@@H]2[C@@H](O)C[C@@]2(C)[C@H]1CC[C@]2(O)C(=O)CO [Hydrocortisone],0.1 µM (% DMSO),[1],122.3 % DMSO and 114.4 % DMSO
same,1 µM (% DMSO),[2],115.5 % DMSO and 108.5 % DMSO
same,10 µM (% DMSO),[3],113.8 % DMSO and 107.0 % DMSO
COc1cccc2c1C(=O)c1c(O)c3c(c(O)c1C2=O)C[C@@](O)(C(=O)CO)C[C@@H]3O[C@H]1C[C@H](N)[C@H](O)[C@H](C)O1 [Doxorubicin],viability at 0.1 µM,[4],86.2%
same,viability at 1 µM,[5],11%
same,viability at 10 µM,[6],13.4%
Cc1ccc(NC(=O)c2ccc(CN3CCN(C)CC3)cc2)cc1Nc1nccc(-c2cccnc2)n1 [Imatinib mesylate],viability at 0.1 µM,[7],93.7%
same,viability at 1 µM,[8],70.5%
same,viability at 10 µM,[9],18%
COc1cccc2c1C(=O)c1c(O)c3c(c(O)c1C2=O)C[C@@](O)(C(=O)CO)C[C@@H]3O[C@H]1C[C@H](N)[C@H](O)[C@H](C)O1 [Adriamycin],0.1 µM (% DMSO),[1],9.9 % DMSO
same,0.1 µM (% DMSO),"alamarBlue viability of expanded OPCs, compound at 0.1 µM, sheet All Tox data",84.2 % DMSO
same,1 µM (% DMSO),[2],9.6 % DMSO
same,1 µM (% DMSO),"alamarBlue viability of expanded OPCs, compound at 1 µM, sheet All Tox data",11.2 % DMSO
same,10 µM (% DMSO),[3],7.8 % DMSO
same,10 µM (% DMSO),"alamarBlue viability of expanded OPCs, compound at 10 µM, sheet All Tox data",11.9 % DMSO
C[C@]12CCC(=O)C=C1CC[C@@H]1[C@@H]2C(=O)C[C@@]2(C)[C@H]1CC[C@]2(O)C(=O)CO [Cortisone],0.1 µM (% DMSO),[10],99.5 % DMSO
same,1 µM (% DMSO),[11],105.4 % DMSO
same,10 µM (% DMSO),[12],105.4 % DMSO
Medroxyprogesterone,0.1 µM (% DMSO),[10],117.3 % DMSO
same,1 µM (% DMSO),[11],126.7 % DMSO
same,10 µM (% DMSO),[12],141.4 % DMSO
"Cc1c2oc3c(C)ccc(C(=O)N[C@@H]4C(=O)N[C@H](C(C)C)C(=O)N5CCC[C@H]5C(=O)N(C)CC(=O)N(C)[C@@H](C(C)C)C(=O)O[C@@H]4C)c3nc-2c(C(=O)N[C@@H]2C(=O)N[C@H](C(C)C)C(=O)N3CCC[C@H]3C(=O)N(C)CC(=O)N(C)[C@@H](C(C)C)C(=O)O[C@@H]2C)c(N)c1=O [Dactinomycin] (I: T[dV]P[Sar][NMeV] / II: T[dV]P[Sar][NMeV]; ester I:1-I:C, II:1-II:C; linker I:N-II:N via Actinocin(9to1))",viability at 0.1 µM,read-out: 0.1 µM (% DMSO),10.2%
same,viability at 1 µM,read-out: 1 µM (% DMSO),11.1%
same,viability at 10 µM,read-out: 10 µM (% DMSO),12.2%
Clc1ccccc1CN1CCc2sccc2C1 [Ticlopidine],viability at 0.1 µM,[4],107%
same,viability at 1 µM,[5],103%
same,viability at 10 µM,[6],90.3%
Cc1ccccc1C(OCCN(C)C)c1ccccc1 (stereo not drawn) [Orphenadrine],0.1 µM (% DMSO),[1],86.1 % DMSO and 95.1 % DMSO
same,1 µM (% DMSO),[2],67.2 % DMSO and 74.3 % DMSO
same,10 µM (% DMSO),[3],47.8 % DMSO and 50.8 % DMSO
CC(=O)[C@]1(O)Cc2c(O)c3c(c(O)c2[C@@H](O[C@H]2C[C@H](N)[C@H](O)[C@H](C)O2)C1)C(=O)c1ccccc1C3=O [Idarubicin],viability at 0.1 µM,[4],13.9%
same,viability at 1 µM,[5],10.9%
same,viability at 10 µM,[6],11.4%
COc1ccc(CCN(C)CCCC(C#N)(c2ccc(OC)c(OC)c2)C(C)C)cc1OC (stereo not drawn) [Verapamil],viability at 0.1 µM,read-out: 0.1 µM (% DMSO),84.5%
same,viability at 1 µM,read-out: 1 µM (% DMSO),92.8%
same,viability at 10 µM,read-out: 10 µM (% DMSO),43%
CC[C@]1(O)C[C@H]2CN(CCc3c([nH]c4ccccc34)[C@@](C(=O)OC)(c3cc4c(cc3OC)N(C=O)[C@H]3[C@@](O)(C(=O)OC)[C@H](OC(C)=O)[C@]5(CC)C=CCN6CC[C@]43[C@@H]65)C2)C1 [Vincristine],viability at 0.1 µM,[7],17.4%
same,viability at 1 µM,[8],11.1%
same,viability at 10 µM,[9],9%
CN(C)CCCN1c2ccccc2CCc2ccccc21 [Imipramine],viability at 0.1 µM,[7],79.4%
same,viability at 1 µM,[8],61.9%
same,viability at 10 µM,[9],30.6%
COc1cc2nc(N3CCN(C(=O)c4ccco4)CC3)nc(N)c2cc1OC [Prazosin],viability at 0.1 µM,[4],80.9%
same,viability at 1 µM,[5],87.6%
same,viability at 10 µM,[6],13.1%
O=C1c2c(O)ccc(O)c2C(=O)c2c(NCCNCCO)ccc(NCCNCCO)c21 [Mitoxantrone],0.1 µM (% DMSO),[1],9.7 % DMSO
same,1 µM (% DMSO),[2],9.0 % DMSO
same,10 µM (% DMSO),[3],7.8 % DMSO
COc1cc([C@@H]2c3cc4c(cc3[C@H](O)[C@H]3COC(=O)[C@H]23)OCO4)cc(OC)c1OC [Podophyllotoxin],0.1 µM (% DMSO),[1],14.8 % DMSO
same,1 µM (% DMSO),[2],10.6 % DMSO
same,10 µM (% DMSO),[3],9.1 % DMSO
CC(C)CC(N(C)C)C1(c2ccc(Cl)cc2)CCC1 (stereo not drawn) [Sibutramine],viability at 0.1 µM,[7],88.3%
same,viability at 1 µM,[8],84%
same,viability at 10 µM,[9],84.4%
CCCN[C@H]1CCc2nc(N)sc2C1 [Pramipexole],viability at 0.1 µM,[4],88.8%
same,viability at 1 µM,[5],92.5%
same,viability at 10 µM,[6],96%
Cc1cc(NS(=O)(=O)c2ccc(N)cc2)no1 [Sulfamethoxazole],viability at 0.1 µM,[7],90.6%
same,viability at 1 µM,[8],96.3%
same,viability at 10 µM,[9],96.5%
Nc1ncnc2c1ncn2[C@@H]1O[C@H](CO)C[C@H]1O [Cordycepin],viability at 0.1 µM,[4],71.9%
same,viability at 1 µM,[5],38.3%
same,viability at 10 µM,[6],16%
